# Measurements published in article PMC10269895 (Microbiology Spectrum, 2023).
# Read-outs that look alike come from different tables or passages of the source.
# Tests used:
# [1] = test system: C. freundii ATCC 8090
# Method: (§1) MICs were determined by adapting the protocol from CLSI guidelines (Table 1; [15]). Briefly, from an overnight preculture, 49.2 μL of an inoculum of 5 × 10^5 CFU/mL in MH broth or DMEM was dispensed into 384-well plates, and 0.8 μL of compounds solubilized in dimethyl sulfoxide (DMSO) and serially diluted was added to the bacterial cultures. […] MICs were determined by measurement of the optical density at 600 nm (OD600). The experiments were performed in duplicate. Commercially available strains were obtained from the American Type Culture Collection (ATCC), the German Collection of Microorganisms and Cell Cultures (DSMZ), and the Biological Resource Center of Institut Pasteur (CRBIP).
# [2] = test system: E. cloacae ATCC BAA-2468; conditions: NDM-1 strain
# Method: as §1
# [3] = test system: E. cloacae CIP 105879
# Method: as §1
# [4] = test system: E. coli ATCC BAA-2469; conditions: NDM-1 strain
# Method: as §1
# [5] = test system: E. coli ATCC BAA-2471; conditions: NDM-1 strain
# Method: as §1
# [6] = test system: E. coli DSM 46345
# Method: as §1
# [7] = test system: E. coli MG1655
# Method: as §1
# [8] = test system: K. pneumoniae ATCC BAA-2342; conditions: KPC strain
# Method: as §1
# [9] = test system: K. pneumoniae ATCC BAA-2470; conditions: NDM-1 strain
# Method: as §1
# [10] = test system: P. mirabilis DSM4479
# Method: as §1
# [11] = test system: P. stuartii ATCC 29851
# Method: as §1
# [12] = target: hCaV3.1 (Homo sapiens, UniProt O43497); assay: Off-target ion channel profiling (automated patch clamp); format: cell-based; conditions: concentrations up to 30 μM
# Chain of hCaV3.1 (O43497 whole entry): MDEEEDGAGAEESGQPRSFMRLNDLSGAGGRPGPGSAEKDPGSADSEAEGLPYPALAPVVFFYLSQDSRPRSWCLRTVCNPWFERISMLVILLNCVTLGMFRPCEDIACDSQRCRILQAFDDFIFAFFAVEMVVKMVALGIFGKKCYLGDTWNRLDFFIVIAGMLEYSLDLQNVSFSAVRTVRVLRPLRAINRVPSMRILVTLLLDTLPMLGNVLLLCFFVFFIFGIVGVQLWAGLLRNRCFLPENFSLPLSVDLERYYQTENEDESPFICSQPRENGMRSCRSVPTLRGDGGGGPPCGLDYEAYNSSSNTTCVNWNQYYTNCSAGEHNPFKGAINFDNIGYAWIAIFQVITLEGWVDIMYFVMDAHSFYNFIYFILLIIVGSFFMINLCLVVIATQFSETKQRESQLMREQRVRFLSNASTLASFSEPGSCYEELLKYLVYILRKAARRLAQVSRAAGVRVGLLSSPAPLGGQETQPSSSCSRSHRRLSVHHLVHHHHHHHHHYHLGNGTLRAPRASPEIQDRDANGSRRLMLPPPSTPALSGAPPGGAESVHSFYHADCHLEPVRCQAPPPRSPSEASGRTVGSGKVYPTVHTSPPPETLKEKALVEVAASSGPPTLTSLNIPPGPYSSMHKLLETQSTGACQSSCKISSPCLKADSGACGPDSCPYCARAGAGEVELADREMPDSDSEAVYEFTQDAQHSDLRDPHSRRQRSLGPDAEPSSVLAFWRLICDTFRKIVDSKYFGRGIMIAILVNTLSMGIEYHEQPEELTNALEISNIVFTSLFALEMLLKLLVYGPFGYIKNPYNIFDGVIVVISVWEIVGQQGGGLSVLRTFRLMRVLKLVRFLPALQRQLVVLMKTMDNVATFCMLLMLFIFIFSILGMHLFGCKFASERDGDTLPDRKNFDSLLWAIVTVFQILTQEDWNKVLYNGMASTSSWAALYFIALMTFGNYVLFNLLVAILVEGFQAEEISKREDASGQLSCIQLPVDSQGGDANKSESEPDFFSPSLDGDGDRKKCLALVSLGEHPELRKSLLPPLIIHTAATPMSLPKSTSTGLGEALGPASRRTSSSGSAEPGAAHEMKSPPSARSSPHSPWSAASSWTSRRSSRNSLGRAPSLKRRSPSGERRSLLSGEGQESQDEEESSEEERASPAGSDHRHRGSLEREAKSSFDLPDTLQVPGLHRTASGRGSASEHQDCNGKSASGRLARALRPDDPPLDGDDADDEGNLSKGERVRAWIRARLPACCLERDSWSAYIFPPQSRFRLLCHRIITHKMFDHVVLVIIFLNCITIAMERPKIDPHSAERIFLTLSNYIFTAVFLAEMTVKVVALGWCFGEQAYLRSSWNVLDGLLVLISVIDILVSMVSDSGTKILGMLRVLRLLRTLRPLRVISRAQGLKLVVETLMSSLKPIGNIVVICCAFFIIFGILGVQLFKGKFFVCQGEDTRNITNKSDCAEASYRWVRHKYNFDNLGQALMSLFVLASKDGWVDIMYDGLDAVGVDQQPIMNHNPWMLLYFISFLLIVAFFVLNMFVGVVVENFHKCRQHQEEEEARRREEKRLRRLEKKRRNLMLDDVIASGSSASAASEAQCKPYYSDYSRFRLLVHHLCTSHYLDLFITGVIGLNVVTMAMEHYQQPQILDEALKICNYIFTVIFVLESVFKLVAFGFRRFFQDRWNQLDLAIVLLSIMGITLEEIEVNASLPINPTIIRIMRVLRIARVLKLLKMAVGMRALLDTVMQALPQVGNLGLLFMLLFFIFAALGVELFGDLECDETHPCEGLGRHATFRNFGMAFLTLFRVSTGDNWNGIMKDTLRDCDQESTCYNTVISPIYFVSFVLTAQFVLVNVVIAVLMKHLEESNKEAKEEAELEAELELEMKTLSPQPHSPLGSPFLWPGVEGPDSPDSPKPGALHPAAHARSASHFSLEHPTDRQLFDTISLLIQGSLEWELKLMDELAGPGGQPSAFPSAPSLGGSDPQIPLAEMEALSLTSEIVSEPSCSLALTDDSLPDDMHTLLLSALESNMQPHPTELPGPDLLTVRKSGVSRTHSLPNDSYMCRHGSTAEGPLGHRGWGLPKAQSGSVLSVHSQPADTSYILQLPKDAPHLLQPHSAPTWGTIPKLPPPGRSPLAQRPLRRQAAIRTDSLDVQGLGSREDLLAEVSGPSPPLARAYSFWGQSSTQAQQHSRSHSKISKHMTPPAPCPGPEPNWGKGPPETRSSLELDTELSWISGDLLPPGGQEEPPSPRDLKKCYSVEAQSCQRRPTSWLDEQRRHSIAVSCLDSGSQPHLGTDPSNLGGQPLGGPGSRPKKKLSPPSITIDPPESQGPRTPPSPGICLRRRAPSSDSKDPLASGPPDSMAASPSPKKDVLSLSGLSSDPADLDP
# Method: (§2) The effect of GE81112A on the hERG and other ion channels (hNaV1.5, hNaV1.2, hCaV3.1, or hKV4.3) was investigated using an automated patch-clamp method, as described by Houtmann et al. ([17]). GE81112A was diluted in a 5-fold 1:3 dilution series with a final concentration range of 30 to 0.12 μM in extracellular medium (150 mM NaCl, 4 mM KCl, 2 mM CaCl2, 1 mM MgCl2, 10 mM HEPES, 10 mM glucose, 0.06% Pluronic F-68, 0.3% residual DMSO). The hERG channel was constitutively expressed in Chinese hamster ovary (CHO) cells (CHO hERG Duo; B’SYS GmbH, Witterswil, Switzerland). CHO cells were grown at a concentration of 8 × 10^6 CHO cells/mL in QPlates (Sophion/Biolin Scientific, Ballerup, Denmark) in Ex-Cell animal component-free CHO medium (Sigma-Aldrich) supplemented with 25 mM HEPES, 100 U/mL penicillin-streptomycin, and 0.004% soybean trypsin inhibitor. To each well, we added extracellular medium containing the desired concentration of GE81112A. The peptide-hERG interaction was quantified by recording the tail current following repolarization of the hERG channels using a QPatch HTX station (Sophion/Biolin Scientific). The IC50 values were determined using the values from three replicates of the GE81112A concentration series with respect to the terfenadine citrate positive control and extracellular medium (blank).
# [13] = target: T1, hERG (Homo sapiens, UniProt Q12809); assay: as above; format: cell-based; conditions: concentrations up to 30 μM
# T1 construct: host or cells: CHO
# T1 sequence (Q12809 whole entry): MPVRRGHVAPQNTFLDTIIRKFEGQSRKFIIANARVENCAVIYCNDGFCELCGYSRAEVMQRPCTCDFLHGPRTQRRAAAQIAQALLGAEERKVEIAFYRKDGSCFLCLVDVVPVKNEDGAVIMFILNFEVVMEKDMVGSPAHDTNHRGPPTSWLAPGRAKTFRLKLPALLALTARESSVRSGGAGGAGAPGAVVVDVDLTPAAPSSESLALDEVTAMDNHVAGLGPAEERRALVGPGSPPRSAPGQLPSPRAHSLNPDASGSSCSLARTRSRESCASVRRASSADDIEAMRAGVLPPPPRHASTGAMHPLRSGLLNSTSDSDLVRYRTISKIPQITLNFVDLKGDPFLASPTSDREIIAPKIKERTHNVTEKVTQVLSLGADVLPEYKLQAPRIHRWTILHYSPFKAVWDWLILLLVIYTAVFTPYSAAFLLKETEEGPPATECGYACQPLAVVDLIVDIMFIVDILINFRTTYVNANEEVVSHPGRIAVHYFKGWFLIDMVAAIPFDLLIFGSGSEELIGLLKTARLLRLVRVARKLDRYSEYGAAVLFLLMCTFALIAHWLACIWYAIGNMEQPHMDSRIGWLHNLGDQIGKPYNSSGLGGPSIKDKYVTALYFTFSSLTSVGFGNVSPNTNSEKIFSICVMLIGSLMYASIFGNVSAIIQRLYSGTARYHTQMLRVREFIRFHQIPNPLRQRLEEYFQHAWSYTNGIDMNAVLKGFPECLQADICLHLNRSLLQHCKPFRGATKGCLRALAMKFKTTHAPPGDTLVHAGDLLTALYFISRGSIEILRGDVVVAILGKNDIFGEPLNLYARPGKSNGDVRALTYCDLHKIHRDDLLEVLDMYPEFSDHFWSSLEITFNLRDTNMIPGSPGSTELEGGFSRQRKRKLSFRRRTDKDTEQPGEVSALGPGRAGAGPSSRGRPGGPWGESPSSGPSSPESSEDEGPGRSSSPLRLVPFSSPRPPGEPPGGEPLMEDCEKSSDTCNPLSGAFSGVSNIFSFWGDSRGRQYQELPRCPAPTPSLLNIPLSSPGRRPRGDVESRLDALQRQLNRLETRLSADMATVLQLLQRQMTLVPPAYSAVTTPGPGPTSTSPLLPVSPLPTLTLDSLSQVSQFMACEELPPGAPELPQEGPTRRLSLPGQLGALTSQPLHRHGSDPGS
# Method: as §2
# [14] = target: hKV4.3 (Homo sapiens, UniProt Q9UK17); assay: as above; format: cell-based; conditions: concentrations up to 30 μM
# Chain of hKV4.3 (Q9UK17 whole entry): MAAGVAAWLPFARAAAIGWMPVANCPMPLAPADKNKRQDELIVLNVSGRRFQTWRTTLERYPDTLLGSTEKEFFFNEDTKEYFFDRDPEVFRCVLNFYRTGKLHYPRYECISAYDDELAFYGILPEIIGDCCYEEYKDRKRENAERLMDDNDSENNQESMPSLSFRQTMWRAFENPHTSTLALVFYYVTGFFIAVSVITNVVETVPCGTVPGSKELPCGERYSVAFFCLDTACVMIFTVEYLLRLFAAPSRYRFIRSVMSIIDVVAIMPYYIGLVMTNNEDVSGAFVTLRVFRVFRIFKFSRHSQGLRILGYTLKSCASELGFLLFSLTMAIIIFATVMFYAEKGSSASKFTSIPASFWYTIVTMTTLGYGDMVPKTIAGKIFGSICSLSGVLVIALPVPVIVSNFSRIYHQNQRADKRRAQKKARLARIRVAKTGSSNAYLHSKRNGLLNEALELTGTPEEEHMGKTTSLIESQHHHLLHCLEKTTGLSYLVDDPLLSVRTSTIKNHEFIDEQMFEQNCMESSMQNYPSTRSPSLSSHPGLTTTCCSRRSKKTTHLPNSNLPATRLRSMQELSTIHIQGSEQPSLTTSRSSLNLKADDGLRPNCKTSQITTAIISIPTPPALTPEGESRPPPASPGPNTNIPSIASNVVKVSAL
# Method: as §2
# [15] = target: hNaV1.2 (Homo sapiens, UniProt Q99250); assay: as above; format: cell-based; conditions: concentrations up to 30 μM
# Method: as §2
# [16] = target: hNaV1.5 (Homo sapiens, UniProt Q14524); assay: as above; format: cell-based; conditions: concentrations up to 30 μM
# Method: as §2
# [17] = test system: Salmonella enterica serovar Typhimurium; assay: Ames II test; format: cell-based; conditions: with and without S9
# Method: The test was carried out with and without metabolic activation by S9 liver homogenate from rats that had been pretreated with Arcolor, S9 mix. The Salmonella enterica serovar Typhimurium tester strains included the mixed strains TA7001 to TA7006 for detection of base pair substitutions and TA98 for detection of frameshift mutations ([18]). Bacterial cultures (from frozen stocks) were grown overnight and tested for genotype conformation. Test compound diluted in DMSO was tested at 16, 50, 160, 500, 1,600, and 5,000 μg/mL with each strain, both in the presence and in the absence of the exogenous hepatic microsomal fraction (S9) from Aroclor 1254-treated rats (obtained as described above). […] Then, 2.8 mL of a pH indicator solution (Merck KGaA, Darmstadt, Germany) (bromocresol purple) containing trace amounts of histidine and biotin (ready-to-use commercial solution) was added to each well, and all samples were then transferred into a 384-well plate. […] Toxicity was assessed by evaluating the density of growth of the background lawn of bacteria. Mutagenicity was assessed by counting the number of wells with color changes (purple or yellow) or the number of easily visible colonies (revertants).
smiles,measurement,setting,value
NC(=O)OC[C@@H](O)C[C@H](NC(=O)[C@H]1NCCC[C@H]1O)C(=O)N[C@@H](Cc1c[nH]cn1)C(=O)N[C@H](C(=O)O)[C@H](O)c1cnc(Cl)[nH]1 [GE81112A],MIC,[1]; DMEM,32 µg/mL
same,MIC,[1]; MHII,>64 µg/mL
same,MIC,[2]; DMEM,>64 µg/mL
same,MIC,[2]; MHII,>64 µg/mL
same,MIC,[3]; DMEM,>64 µg/mL
same,MIC,[3]; MHII,>64 µg/mL
same,MIC,[4]; DMEM,>64 µg/mL
same,MIC,[4]; MHII,>64 µg/mL
same,MIC,[5]; DMEM,4 µg/mL
same,MIC,[5]; MHII,>64 µg/mL
same,MIC,[6]; DMEM,>64 µg/mL
same,MIC,[6]; MHII,>64 µg/mL
same,MIC,[7]; DMEM,1 µg/mL
same,MIC,[7]; MHII,>64 µg/mL
same,MIC,[8]; DMEM,>64 µg/mL
same,MIC,[8]; MHII,>64 µg/mL
same,MIC,[9]; DMEM,>64 µg/mL
same,MIC,[9]; MHII,>64 µg/mL
same,MIC,[10]; DMEM,64 µg/mL
same,MIC,[10]; MHII,>64 µg/mL
same,MIC,[11]; DMEM,>64 µg/mL
same,MIC,[11]; MHII,>64 µg/mL
same,Ion channel inhibition,[12],did not inhibit
same,Ion channel inhibition,[13],did not inhibit
same,Ion channel inhibition,[14],did not inhibit
same,Ion channel inhibition,[15],did not inhibit
same,Ion channel inhibition,[16],did not inhibit
same,Mutagenicity,[17],no mutagenicity
